Measured values taken from patent US4076830A, “Alkylmethanodibenzocycloheptapyrroles” (E. I. Du Pont de Nemours and Company, priority 1976, dated 1978).
Counter-ions that a name gives are not always drawn. Like-named read-outs stand apart in the source and are kept apart here.

What was measured:
[1] = tested on: phenylquinone-induced writhing; assay: analgesic activity: prevention of phenylquinone-induced writhing in mice; format: in vivo, mouse (Carworth CF1 S female mice); details: oral, phenylquinone 1.1 mg/kg intraperitoneally
From the text: This mouse test is predictive of analgesic response in humans. [E. Siegmund, R. Cadmus and G. Lee, Proc. Soc.
ED50 values were obtained graphically from the data.

female white mice = assay: general tranquilizer activity in mice (exploratory loss, ptosis, catatonia, muscle tone, grip and lift reflexes, pinna twitch reflex, tremors, death); details: for ED50: Mus musculus, po
Method: (§1) Groups of five Carworth CF1 S female mice, 16-20 g each, were fasted 16-22 hours before use. The mice were put in opaque plastic "shoe-box" cages 15-30 min. before injection, and then treated orally with 4, 12, 36, 108 and 324 mg/kg of the compound to be tested […] in 1% aqueous distilled water solution of methylcellulose (Methocel®). Each dose was given in a standard volume of 0.45 ml. Observations were made at 0.5, 2 and 24 hours after dosing. ED50 values were calculated for each parameter including death (LD50). The ED50 and LD50 values are the doses at which 50% of the animals would be expected to respond.
(§2) Exploratory Activity - The mouse is placed on a stainless steel wire mesh screen (8 inches × 12 inches, 3 mesh per inch, 174 inch mesh openings) "shoe-box" lid (1 inch high) and is observed for normal activities, such as nose movements, head movements with apparent visual examination of the area, and/or walking around on the screen. Absence of or marked depression of these activities for 5 seconds constitutes loss of exploratory activity.
(§3) Ptosis - The mouse is picked up by the tail and placed on the screen with its head facing the observer. Bilateral eyelid closure of 50% or more two seconds after placement is considered ptosis.
(§4) Catatonia - The mouse is placed with its front paws on the edge of a stainless steel "shoe-box" cover, 1 inch high, covered with adhesive tape. Failure to remove both paws from the cover's edge within 5 seconds constitutes catatonia.
(§5) Muscle Tone - The observer gently strokes the abdominal musculature of the mouse with thumb and forefinger. Flaccidity (or rarely, tenseness) is recorded.
(§6) Grip and Lift Reflexes - The mouse is gently swung by the tail toward a horizontal 12 gauge wire tautly stretched 25 cm above the bench. After the mouse grasps the wire with its forepaws, its posterior end is held directly below the wire. A normal mouse grasps the wire with its forepaws and immediately lifts its hind limbs to the wire. Failure to grasp the wire with the forepaws in both trials constitutes loss of the grip reflex; failure to lift the hind limbs to grasp the wire with at least one hind paw within 5 seconds constitutes loss of the lift reflex.
(§7) Pinna Twitch Reflex - The mouse is placed on the bar 10-20 cm horizontally and 9 cm vertically from a Galton whistle adjusted for 13 kc (5 mm on the whistle scale) and is subjected to several short bursts of sound.
(§8) The ED50 values, i.e., the dose which caused the response in 50% of the mice, are tabulated.

[2] = as above; details: mouse, in vivo, po
Method: as §1, §2, §3, §4, §5, §6, §7, §8

[3] = read-out: ED50 Catatonia, oral, mice, observed at 0.5, 2 and 24 hours
[4] = read-out: ED50 Exploratory Loss Visual, oral, mice, observed at 0.5, 2 and 24 hours
[5] = read-out: ED50 Muscle Tone, oral, mice, observed at 0.5, 2 and 24 hours
[6] = read-out: ED50 Ptosis, oral, mice, observed at 0.5, 2 and 24 hours
[7] = read-out: ED50 Reflexes Grip, oral, mice, observed at 0.5, 2 and 24 hours
[8] = read-out: ED50 Reflexes Lift, oral, mice, observed at 0.5, 2 and 24 hours
[9] = read-out: ED50 Reflexes Pinna, oral, mice, observed at 0.5, 2 and 24 hours
[10] = read-out: ED50 Tremors, oral, mice, observed at 0.5, 2 and 24 hours
[11] = oral, mice, observed at 0.5, 2 and 24 hours
[12] = oral, mice, observed at 0.5, 2 and 24 hours, hydrochloride

SMILES	ED50 ([1]; Mus musculus, dose blocking writhing in 50% of mice, read-out: ED50 Phenylquinone Analgesia) [mg/kg]	ED50 (female white mice; [3]) [mg/kg]	ED50 (female white mice; [4]) [mg/kg]	ED50 (female white mice; [5]) [mg/kg]	ED50 (female white mice; [6]) [mg/kg]	ED50 (female white mice; [7]) [mg/kg]	ED50 (female white mice; [8]) [mg/kg]	ED50 (female white mice; [9]) [mg/kg]	ED50 (female white mice; [10]) [mg/kg]	LD50 at 24 h [2] [mg/kg]	Phenylquinone Analgesia (activity in words) [1]	LD50 (female white mice; 24-hour value, oral, mice) [mg/kg]	ED50 Muscle Tone (female white mice; [11]) [mg/kg]	ED50 Reflexes Grip (female white mice; [11]) [mg/kg]	ED50 Tremors (female white mice; [11]) [mg/kg]	ED50 Catatonia (female white mice; [12]) [mg/kg]	ED50 Exploratory Loss Visual (female white mice; [12]) [mg/kg]	ED50 Ptosis (female white mice; [12]) [mg/kg]	ED50 Reflexes Lift (female white mice; [12]) [mg/kg]	ED50 Reflexes Pinna (female white mice; [12]) [mg/kg]
C[C@]12C[C@@]3(CN(CC4CCCCC4)C[C@@H]3c3ccccc31)c1ccccc12 (relative stereo) [Example 1, 2-Cyclohexylmethyl-8-methyl-trans-2,3,8,12b-tetra-hydro-1H-3a,8-methanodibenzo[3,4:6,7]cyclohepta[1,2-c]-pyrrole Hydrochloride]	30	109	87	109	87	> 324	97	109	> 324	> 324										
CN1C[C@@H]2c3ccccc3[C@]3(C)C[C@@]2(C1)c1ccccc13 (relative stereo) [Example 2, 2,8-Dimethyl-trans-2,3,8,12b-tetrahydro-1H-3a,8-methanodibenzo[3,4:6,7]cyclohepta[1,2-c]pyrrole Hydrochloride]		60	60	36	60	60	60	60	60	300	Active									
CN(C)CCCN1c2ccccc2Sc2ccc(Cl)cc21 [Chlorpromazine, reference compound]		8	7	8	7	240	8	5	> 324	850										
CN1C(=O)CN=C(c2ccccc2)c2cc(Cl)ccc21 [Diazepam, reference compound]		59	87	89	79	78	4.4	63	> 324											
CC1[C@@H]2c3ccccc3[C@@H]3C[C@@]2(CN1CC1CCCC1)c1ccccc13 (stereo partly drawn) [Example 3g, 2-cyclopentylmethyl-1-methyl-trans-2,3,8,12b-tetrahydro-1H-3a,8-methanodibenzo[3,4:6,7]cyclohepta[1,2-c]pyrrole, hydrochloride]		20	7	20	12	> 324	36	20	> 324	> 324	Active									
CC1[C@@H]2c3ccccc3[C@@H]3C[C@@]2(CN1CC1CCCC1)c1ccccc13 (stereo partly drawn) [Example 3h, 2-cyclopentylmethyl-1-methyl-trans-2,3,8,12b-tetrahydro-1H-3a,8-methanodibenzo[3,4:6,7]-cyclohepta[1,2-c]pyrrole hydrochloride]												> 324	20	> 324	> 324	12	< 4	20	20	12
